Reference: PMC12406203 (Journal of Medicinal Chemistry, 2025)
“And” between values parts separate entries of the source, which are not always exact repeats. Equal entries are not always repeated.

Legend:
[1] = test system: scopolamine-induced cognitive deficits in mice; experiment: Passive avoidance task, scopolamine-induced amnesia; format: in vivo; settings: for efficacy in PA task: 5 mg/kg i.p., scopolamine model; for step-through latency, retention trial (PA task): 10 mg/kg i.p., vs scopolamine-treated control mice
Excerpt: In the scopolamine model, the PA and NOR tasks were used for dose selection for further testing.
The mice had unlimited access to food and water prior to the experiment. Specified conditions for the maintenance of mice were ensured throughout the experiment, including tree bedding (Transwior, Poland) and cage enrichment (tunnels, nesting material, wooden igloos, etc.). For behavioral tests, the mice were selected randomly; each group consisted of 7–10 mice.
Scopolamine hydrobromide (Sigma-Aldrich, Poland) at the dose of 1 mg/kg was used to induce learning and memory deficits. For the in vivo tests, scopolamine was prepared in distilled water (Polfa Kutno, Poland) and was administered subcutaneously (s.c.) 30 min before behavioral tests during the acquisition (training) trial of PA and NOR tasks. […] They were administered intraperitoneally (i.p.) 60 min before the acquisition trial of the PA, NOR, and MWM tasks.
The PA apparatus (Panlab Harvard Apparatus, Spain) consists of a large white-colored illuminated compartment (26 cm × 26 cm × 34 cm) and a small black-colored compartment (13 cm × 7.5 cm × 7.5 cm), which are separated from each other by a guillotine gate (5 cm × 5 cm). The PA task is divided into two trials (i.e., the acquisition trial and the retention trial), each conducted 24 h apart. On the first day, during the acquisition trial (a conditioning phase), the test compounds (94 and 95, neflamapimod and vehicle) were injected. Also, before the acquisition trial, scopolamine or LPS was administered at selected time points. Then, each mouse was placed into the white compartment, and a 30 s habituation period began (guillotine gate is closed). After that, the guillotine gate was opened, and the mice were tested during the 180 s testing period. As soon as the mouse entered the black compartment of the PA device, the guillotine gate was closed and an electrical shock (intensity: 0.2 mA, duration: 2 s) was automatically applied through the grid floor. For each mouse, the latency between the opening of the guillotine gate and the mouse’s entering the black compartment was measured. On the next day, during the retention (drug-off) trial, the mice were placed again into the white compartment for a 30 s habituation period, and the latency to enter the black compartment was measured for each mouse.

YANK3 = target: T1, YANK3 (Homo sapiens, UniProt Q86UX6); experiment: KINOMEscan; format: binding
T1 construct: purchased Eurofins DiscoverX, LLC; host or cells: E. coli BL21-derived host (T7 phage) or HEK-293
T1 sequence (Q86UX6 whole entry): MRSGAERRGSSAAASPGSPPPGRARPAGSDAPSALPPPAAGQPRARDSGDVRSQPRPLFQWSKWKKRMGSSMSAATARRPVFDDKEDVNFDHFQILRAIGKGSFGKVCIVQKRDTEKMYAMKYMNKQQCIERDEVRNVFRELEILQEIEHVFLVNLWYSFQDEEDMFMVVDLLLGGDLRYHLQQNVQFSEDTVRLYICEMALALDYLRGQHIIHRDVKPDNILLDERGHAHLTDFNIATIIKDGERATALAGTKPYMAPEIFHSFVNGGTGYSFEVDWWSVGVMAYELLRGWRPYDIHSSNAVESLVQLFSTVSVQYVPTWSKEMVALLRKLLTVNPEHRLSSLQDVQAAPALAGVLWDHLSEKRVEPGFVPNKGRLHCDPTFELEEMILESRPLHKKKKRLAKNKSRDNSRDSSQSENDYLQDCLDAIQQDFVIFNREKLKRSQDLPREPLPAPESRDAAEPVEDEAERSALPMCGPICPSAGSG

ROCK2 = target: T2, ROCK2 (Homo sapiens, UniProt O75116); experiment: KINOMEscan; format: binding
T2 construct: purchased Eurofins DiscoverX, LLC; host or cells: E. coli BL21-derived host (T7 phage) or HEK-293

ABL1-nonphosphorylated = target: T3, ABL1-nonphosphorylated (Homo sapiens, UniProt P00519); experiment: KINOMEscan; format: binding
T3 construct: purchased Eurofins DiscoverX, LLC; host or cells: E. coli BL21-derived (T7 phage) or HEK-293
T3 sequence (P00519 whole entry): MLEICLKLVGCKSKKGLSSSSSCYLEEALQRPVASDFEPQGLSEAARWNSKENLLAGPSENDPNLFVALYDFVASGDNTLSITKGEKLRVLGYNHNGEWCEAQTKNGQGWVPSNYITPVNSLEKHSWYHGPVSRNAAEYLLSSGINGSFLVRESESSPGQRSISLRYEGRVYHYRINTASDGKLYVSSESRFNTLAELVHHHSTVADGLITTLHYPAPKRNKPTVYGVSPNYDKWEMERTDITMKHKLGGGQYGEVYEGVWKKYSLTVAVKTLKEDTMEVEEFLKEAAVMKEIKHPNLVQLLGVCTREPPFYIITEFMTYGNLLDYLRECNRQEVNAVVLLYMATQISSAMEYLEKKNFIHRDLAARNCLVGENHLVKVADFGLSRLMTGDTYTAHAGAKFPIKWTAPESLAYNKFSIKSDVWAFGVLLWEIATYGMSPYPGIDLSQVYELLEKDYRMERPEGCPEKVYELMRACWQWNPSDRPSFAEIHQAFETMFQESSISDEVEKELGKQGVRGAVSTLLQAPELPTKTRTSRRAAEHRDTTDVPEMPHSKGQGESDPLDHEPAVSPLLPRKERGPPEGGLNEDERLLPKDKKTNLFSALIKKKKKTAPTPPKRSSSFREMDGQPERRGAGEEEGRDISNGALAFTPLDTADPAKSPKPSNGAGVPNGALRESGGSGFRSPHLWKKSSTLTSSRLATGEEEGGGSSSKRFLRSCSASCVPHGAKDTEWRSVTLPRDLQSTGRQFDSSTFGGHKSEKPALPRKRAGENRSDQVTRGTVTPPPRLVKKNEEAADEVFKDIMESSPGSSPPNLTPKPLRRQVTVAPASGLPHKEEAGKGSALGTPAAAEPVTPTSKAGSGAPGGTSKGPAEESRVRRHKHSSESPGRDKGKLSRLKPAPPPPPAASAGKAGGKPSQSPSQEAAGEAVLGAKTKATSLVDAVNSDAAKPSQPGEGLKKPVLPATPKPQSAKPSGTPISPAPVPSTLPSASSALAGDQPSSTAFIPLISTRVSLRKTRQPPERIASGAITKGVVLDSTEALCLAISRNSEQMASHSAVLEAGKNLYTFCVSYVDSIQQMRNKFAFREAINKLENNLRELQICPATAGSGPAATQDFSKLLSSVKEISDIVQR

MET = target: T4, MET (Homo sapiens, UniProt P08581); experiment: KINOMEscan; format: binding
T4 construct: purchased Eurofins DiscoverX, LLC; host or cells: E. coli (BL21-derived, T7 phage) or HEK-293
T4 sequence (P08581 25-1390): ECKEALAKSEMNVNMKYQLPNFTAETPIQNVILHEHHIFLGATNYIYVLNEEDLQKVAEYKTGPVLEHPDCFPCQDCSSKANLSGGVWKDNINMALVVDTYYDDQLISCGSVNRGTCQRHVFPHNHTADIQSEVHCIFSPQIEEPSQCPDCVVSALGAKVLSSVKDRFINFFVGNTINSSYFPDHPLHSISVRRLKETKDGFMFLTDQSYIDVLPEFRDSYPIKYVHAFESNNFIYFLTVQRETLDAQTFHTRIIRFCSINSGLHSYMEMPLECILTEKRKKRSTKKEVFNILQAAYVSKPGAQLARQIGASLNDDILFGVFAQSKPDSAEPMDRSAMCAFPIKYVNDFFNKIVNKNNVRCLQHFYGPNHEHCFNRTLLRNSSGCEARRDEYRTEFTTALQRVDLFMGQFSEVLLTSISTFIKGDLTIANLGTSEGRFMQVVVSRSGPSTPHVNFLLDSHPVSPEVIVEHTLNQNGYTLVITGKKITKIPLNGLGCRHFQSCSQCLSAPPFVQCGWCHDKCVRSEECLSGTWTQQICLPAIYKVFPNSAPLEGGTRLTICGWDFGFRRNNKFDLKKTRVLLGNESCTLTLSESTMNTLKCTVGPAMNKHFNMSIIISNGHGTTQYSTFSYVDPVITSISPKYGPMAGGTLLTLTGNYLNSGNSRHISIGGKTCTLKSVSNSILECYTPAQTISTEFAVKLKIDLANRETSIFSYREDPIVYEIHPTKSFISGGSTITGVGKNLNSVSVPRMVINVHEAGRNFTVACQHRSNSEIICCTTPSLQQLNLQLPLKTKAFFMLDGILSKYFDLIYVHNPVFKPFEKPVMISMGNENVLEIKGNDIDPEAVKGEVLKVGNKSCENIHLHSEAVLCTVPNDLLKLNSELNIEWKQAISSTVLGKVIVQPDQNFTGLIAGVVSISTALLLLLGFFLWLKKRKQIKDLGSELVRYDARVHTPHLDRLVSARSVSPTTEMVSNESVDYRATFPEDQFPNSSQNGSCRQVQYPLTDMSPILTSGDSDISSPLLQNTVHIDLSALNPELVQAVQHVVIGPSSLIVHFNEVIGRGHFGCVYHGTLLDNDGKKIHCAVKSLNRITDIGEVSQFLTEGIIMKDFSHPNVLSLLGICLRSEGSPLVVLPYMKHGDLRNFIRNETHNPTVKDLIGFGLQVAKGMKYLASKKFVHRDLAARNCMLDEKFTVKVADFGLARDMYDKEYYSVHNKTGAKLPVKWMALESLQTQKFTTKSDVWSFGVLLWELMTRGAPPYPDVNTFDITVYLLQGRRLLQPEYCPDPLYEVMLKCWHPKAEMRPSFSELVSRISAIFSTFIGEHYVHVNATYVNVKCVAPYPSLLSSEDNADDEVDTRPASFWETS

p38β = target: T5, p38β (Homo sapiens, UniProt Q15759); experiment: KINOMEscan; format: binding
T5 construct: purchased Eurofins DiscoverX, LLC; host or cells: E. coli (BL21-derived, T7 phage) or HEK-293
T5 sequence (Q15759 whole entry): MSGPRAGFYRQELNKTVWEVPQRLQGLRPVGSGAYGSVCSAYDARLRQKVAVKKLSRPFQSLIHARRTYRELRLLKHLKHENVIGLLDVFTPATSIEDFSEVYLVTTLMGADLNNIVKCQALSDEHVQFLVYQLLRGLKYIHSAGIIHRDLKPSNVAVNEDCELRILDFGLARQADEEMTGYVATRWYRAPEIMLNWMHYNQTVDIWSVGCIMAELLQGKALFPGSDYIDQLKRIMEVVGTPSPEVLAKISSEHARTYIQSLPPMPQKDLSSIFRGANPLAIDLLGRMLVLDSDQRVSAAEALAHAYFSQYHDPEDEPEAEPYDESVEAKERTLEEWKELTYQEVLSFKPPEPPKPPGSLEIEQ

p38γ = target: T6, p38γ (Homo sapiens, UniProt P53778); experiment: KINOMEscan; format: binding
T6 construct: purchased Eurofins DiscoverX, LLC; host or cells: E. coli (BL21-derived, T7 phage) or HEK-293
T6 sequence (P53778 1-367): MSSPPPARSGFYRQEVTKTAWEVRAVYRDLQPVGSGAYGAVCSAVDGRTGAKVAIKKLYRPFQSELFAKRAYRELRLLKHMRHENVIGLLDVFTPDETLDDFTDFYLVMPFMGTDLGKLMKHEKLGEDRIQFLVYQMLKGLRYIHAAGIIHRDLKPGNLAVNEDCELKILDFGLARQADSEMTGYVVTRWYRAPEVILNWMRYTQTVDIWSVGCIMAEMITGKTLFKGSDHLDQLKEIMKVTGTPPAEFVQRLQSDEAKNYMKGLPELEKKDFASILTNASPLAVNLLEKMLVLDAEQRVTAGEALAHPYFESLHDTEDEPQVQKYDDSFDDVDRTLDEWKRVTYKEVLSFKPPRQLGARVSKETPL

EGFR = target: T7, EGFR (Homo sapiens, UniProt P00533); experiment: KINOMEscan; format: binding
T7 construct: purchased Eurofins DiscoverX, LLC; host or cells: E. coli (T7 phage) or HEK-293

KIT(D816V) = target: T8, KIT(D816V) (Homo sapiens, UniProt P10721, D816V); experiment: KINOMEscan; format: binding
T8 construct: purchased Eurofins DiscoverX, LLC; host or cells: E. coli (BL21-derived, T7 phage) or HEK-293
T8 sequence (P10721 26-976 D816V): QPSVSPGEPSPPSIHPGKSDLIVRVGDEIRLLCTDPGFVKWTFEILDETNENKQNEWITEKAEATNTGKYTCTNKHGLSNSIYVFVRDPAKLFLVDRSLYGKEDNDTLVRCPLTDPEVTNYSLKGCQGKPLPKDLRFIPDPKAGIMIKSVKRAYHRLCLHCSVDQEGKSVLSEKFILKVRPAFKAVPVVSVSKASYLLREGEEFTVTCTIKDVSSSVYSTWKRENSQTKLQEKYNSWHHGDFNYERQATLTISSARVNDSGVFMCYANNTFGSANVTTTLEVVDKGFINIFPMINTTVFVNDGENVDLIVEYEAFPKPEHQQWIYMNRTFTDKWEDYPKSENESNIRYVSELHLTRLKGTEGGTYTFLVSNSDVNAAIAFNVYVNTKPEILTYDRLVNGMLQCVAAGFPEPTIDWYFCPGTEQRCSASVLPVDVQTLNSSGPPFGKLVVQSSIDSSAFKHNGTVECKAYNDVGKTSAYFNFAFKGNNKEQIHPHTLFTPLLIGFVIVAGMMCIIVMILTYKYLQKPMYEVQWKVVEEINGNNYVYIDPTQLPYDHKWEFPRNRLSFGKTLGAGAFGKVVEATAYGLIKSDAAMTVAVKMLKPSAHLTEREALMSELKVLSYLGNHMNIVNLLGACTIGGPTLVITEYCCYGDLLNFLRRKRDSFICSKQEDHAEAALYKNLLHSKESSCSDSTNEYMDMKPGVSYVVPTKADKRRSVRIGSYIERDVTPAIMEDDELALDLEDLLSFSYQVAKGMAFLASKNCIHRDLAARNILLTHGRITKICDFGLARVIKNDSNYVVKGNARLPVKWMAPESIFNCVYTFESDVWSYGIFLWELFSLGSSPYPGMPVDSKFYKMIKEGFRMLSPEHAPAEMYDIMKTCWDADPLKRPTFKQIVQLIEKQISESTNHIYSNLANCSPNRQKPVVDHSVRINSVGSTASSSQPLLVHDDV

KIT(V559D,T670I) = target: T9, KIT(V559D,T670I) (Homo sapiens, UniProt P10721, T670I/V559D); experiment: KINOMEscan; format: binding
T9 construct: purchased Eurofins DiscoverX, LLC; host or cells: E. coli (BL21-derived, T7 phage) or HEK-293
T9 sequence (P10721 26-976 V559D/T670I): as the sequence (P10721 26-976 D816V) above, with V534D, T645I, V791D counted along it

IGF1R = target: T10, IGF1R (Homo sapiens, UniProt P08069); experiment: KINOMEscan; format: binding
T10 construct: purchased Eurofins DiscoverX, LLC; host or cells: E. coli (T7 phage) or HEK-293

[2] = test system: ABL1(E255K)-phosphorylated

## CC(C)Cn1ncc2cc(Cc3ccc(F)cc3F)c(C(=O)NCCN(C)C)cc21 [Compound 94, 5-(2,4-Difluorobenzyl)-N-(2-(dimethylamino)ethyl)-1-isobutyl-1H-indazole-6-carboxamide]
ERBB4
  RA @ 1000nM: 85%
  RA @ 10000nM: 83%
[1]
  efficacy in PA task: not statistically significantly effective
  step-through latency, retention trial (PA task): statistically significant prolonged step-through latency
p38α MAPK
  IC50: 377 nM and 156 ng/mL
YANK3
  RA @ 1000nM: 100%
  RA @ 10000nM: 100%
ROCK2
  RA @ 1000nM: 87%
  RA @ 10000nM: 96%
ABL1-nonphosphorylated
  RA @ 1000nM: 85%
  RA @ 10000nM: 97%
MET
  RA @ 1000nM: 96%
  RA @ 10000nM: 100%
p38β
  RA @ 1000nM: 72%
  RA @ 10000nM: 15%
p38γ
  RA @ 1000nM: 93%
  RA @ 10000nM: 94%
EGFR
  RA @ 1000nM: 98%
  RA @ 10000nM: 69%
KIT(D816V)
  RA @ 1000nM: 94%
  RA @ 10000nM: 100%
KIT(V559D,T670I)
  RA @ 1000nM: 100%
  RA @ 10000nM: 100%
IGF1R
  RA @ 1000nM: 94%
  RA @ 10000nM: 84%
[2]
  RA @ 1000nM: 96%
  RA @ 10000nM: 55%
MEK1
  RA @ 1000nM: 98%
  RA @ 10000nM: 74%
TRKA
  RA @ 1000nM: 98%
  RA @ 10000nM: 94%
AKT1
  RA @ 1000nM: 100%
  RA @ 10000nM: 75%
MEK2
  RA @ 1000nM: 86%
  RA @ 10000nM: 80%
PAK2
  RA @ 1000nM: 100%
  RA @ 10000nM: 97%

## CN(C)CCNC(=O)c1cc2c(cnn2CC2CCCCC2)cc1Cc1ccc(F)cc1F [Compound 95, 1-(Cyclohexylmethyl)-5-(2,4-difluorobenzyl)-N-(2-(dimethylamino)ethyl)-1H-indazole-6-carboxamide]
ERBB4
  RA @ 1000nM: 93%
  RA @ 10000nM: 81%
[1]
  efficacy in PA task: not statistically significantly effective
  step-through latency, retention trial (PA task): statistically significant prolonged step-through latency
p38α MAPK
  IC50: 191 nM and 87 ng/mL
YANK3
  RA @ 1000nM: 100%
  RA @ 10000nM: 100%
ROCK2
  RA @ 1000nM: 83%
  RA @ 10000nM: 100%
ABL1-nonphosphorylated
  RA @ 1000nM: 90%
  RA @ 10000nM: 90%
MET
  RA @ 1000nM: 100%
  RA @ 10000nM: 100%
p38β
  RA @ 1000nM: 84%
  RA @ 10000nM: 18%
p38γ
  RA @ 1000nM: 100%
  RA @ 10000nM: 99%
EGFR
  RA @ 1000nM: 100%
  RA @ 10000nM: 100%
KIT(D816V)
  RA @ 1000nM: 96%
  RA @ 10000nM: 94%
KIT(V559D,T670I)
  RA @ 1000nM: 47%
  RA @ 10000nM: 94%
IGF1R
  RA @ 1000nM: 100%
  RA @ 10000nM: 93%
[2]
  RA @ 1000nM: 96%
  RA @ 10000nM: 93%
hAChE
  RA at 100 µM: 53.4 ± 0.8%
MEK1
  RA @ 1000nM: 98%
  RA @ 10000nM: 100%
TRKA
  RA @ 1000nM: 100%
  RA @ 10000nM: 92%
AKT1
  RA @ 1000nM: 100%
  RA @ 10000nM: 100%
MEK2
  RA @ 1000nM: 95%
  RA @ 10000nM: 100%
PAK2
  RA @ 1000nM: 100%
  RA @ 10000nM: 95%
